How the values were obtained:
Staphylococcus aureus = assay: Agar Dilution Method of Sensitivity testing, NE alone and NE + antibiotic; assay type: cell-based; details: resistant S. aureus cultures, 48 hours
Procedure: Two kinds of investigations were carried-out using these bacterial isolates—using an Agar Dilution Method of Sensitivity testing.
i) To ascertain whether, NE can work as an antibacterial substance on its own. For this purpose, a stock-solution of NE was prepared and was sterilized as described in the preliminary experiments.
ii) This stock-solution was dispensed into the culture medium (Mueller Hinton Agar) so as to provide while; the medium was in liquid form. Four different concentrations of NE, viz.
iii) This medium was poured into petri dishes and allowed to solidify. Resistant cultures were inoculated on to these plates and after incubation for 48 hours, the growth patterns were assessed.
iv) The experiments were run in triplicate, for each concentration—as per standard practices of microbiological testing procedures.
i) The culture medium (Mueller Hinton Agar) was melted and distributed into a number of test tubes.
ii) The stock solution of NE was dispensed into these test tubes in four different concentrations viz.
iii) In the same medium, one of the antibiotics under investigation was also added so as to provide a variable concentration (at break-even point concentration) as described below:
iv) The culture medium containing NE extract+the antibiotic were poured into petri dishes and allowed to solidify.
v) The resistant bacterial strains were inoculated onto these plates, incubated for 48 hours and the growth patterns were studied on each plate.
These cultures were obtained various clinical samples, such as sputum, non-healing infected wounds, throat swabs etc.

[1] = highest serum concentration reached after the maximum therapeutic dose in-vivo; cited from earlier work
[2] = antibiotic at break-even point + NE 125 μg/mL
[3] = antibiotic at break-even point + NE 250 μg/mL
[4] = antibiotic at break-even point + NE 500 μg/mL
[5] = antibiotic at break-even point + NE 1000 μg/mL

Compound	Growth Patterns after addition of NE: no. of cultures +++ (growth) (Staphylococcus aureus; [2])	Growth Patterns after addition of NE: no. of cultures −−− (inhibition of growth) (Staphylococcus aureus; [2])	Growth Patterns after addition of NE: no. of cultures +++ (growth) (Staphylococcus aureus; [3])	Growth Patterns after addition of NE: no. of cultures −−− (inhibition of growth) (Staphylococcus aureus; [3])	Growth Patterns after addition of NE: no. of cultures +++ (growth) (Staphylococcus aureus; [4])	Growth Patterns after addition of NE: no. of cultures −−− (inhibition of growth) (Staphylococcus aureus; [4])	Growth Patterns after addition of NE: no. of cultures +++ (growth) (Staphylococcus aureus; [5])	Growth Patterns after addition of NE: no. of cultures −−− (inhibition of growth) (Staphylococcus aureus; [5])	break point [1] [µg/mL]
CC1=C(C(=O)O)N2C(=O)[C@@H](NC(=O)[C@H](N)c3ccccc3)[C@H]2SC1 [Cephalexin]	81	21	81	21	81	21	81	21	18
Gentamicin	89	13	88	14	88	14	88	14	
CC1(C)S[C@@H]2[C@H](NC(=O)[C@H](N)c3ccc(O)cc3)C(=O)N2[C@H]1C(=O)O [Amoxacillin]									16
